Patent US20210195892A1, “COMPOSITION AND METHOD FOR MICROBIAL CONTROL ON MATERIAL SURFACES” (Microban Products Company, priority 2019, published 2021)
Where a name gives a salt, the structure may show the parent alone.

Legend:
[1] = system: Aspergillus niger (An); experiment: ASTM E2180 protocol, fungus; type: cell-based
[2] = Thermogravimetric analysis (TGA) at 10° C./min; type: physicochemical; settings: for temperature at which volatization started: TGA 10° C./min, FIG. 2
[3] = system: bacteria; experiment: Antibacterial efficacy of treated PP plaques (ISO 22196); type: cell-based; settings: for bacterial efficacy per the ISO 22196 test: salts alone in PP, any active concentration up to 1%
Experimental: In addition to processing at 200° C., samples were run with PP at 250° C. to simulate the use of these GRAS acids in polymers that process at higher temperatures than polypropylene. Samples were also run using extended residence times in the injection molding machine (from the normal 30 second residence time to 120 seconds residence time) to simulate a process with a longer cycle time that would hold the polymer material at temperature for an extended period of time—the extended cycle were run at both 200° C. and 240° C.

Compound | temperature at which volatization started [2] | bacterial efficacy per the ISO 22196 test [3] | further results
O=C(O)c1ccccc1 [GBA, benzoic acid] | approximately 100 °C |  | reduction in fungal growth ([1]; incorporated into EVA): over 90%; reductions in fungal growth ([1]; incorporated into PE): over 99%
O=C(O)CC(O)(CC(=O)O)C(=O)O [GCA, citric acid] | 200 °C |  | antibacterial efficacy ([3]; PP test plaques at 0.5% and 1% active level): good at the higher level but fell off at the lower level
C/C=C/C=C/C(=O)[O-].[K+] [GKS, potassium sorbate] |  | no significant bacterial efficacy | 
O=C([O-])c1ccccc1.[Na+] [GNB, sodium benzoate] |  | no significant bacterial efficacy | 
O=C(O)CC(O)(CC(=O)O)C(=O)O [GNC, sodium citrate] |  | no significant bacterial efficacy | weight loss in TGA ([2]; TGA 10° C./min up to 275° C., attributed to water content): approximately 10%
C/C=C/C=C/C(=O)O [GSA, sorbic acid] | approximately 100 °C |  | efficacy as low as (level in PP) ([3]; further experiments, PP): 1000 ppm
